Here are results for 15 compounds from patent US8455475B2 (Gruenenthal GmbH, priority 2009, dated 2013).

Test [1] deals with T1, human B1R (bradykinin receptor 1) (Homo sapiens, UniProt P46663).
T1 construct: expressed in transfected cells; host or cells: CHO K1 cells
T1 sequence (P46663 1-353): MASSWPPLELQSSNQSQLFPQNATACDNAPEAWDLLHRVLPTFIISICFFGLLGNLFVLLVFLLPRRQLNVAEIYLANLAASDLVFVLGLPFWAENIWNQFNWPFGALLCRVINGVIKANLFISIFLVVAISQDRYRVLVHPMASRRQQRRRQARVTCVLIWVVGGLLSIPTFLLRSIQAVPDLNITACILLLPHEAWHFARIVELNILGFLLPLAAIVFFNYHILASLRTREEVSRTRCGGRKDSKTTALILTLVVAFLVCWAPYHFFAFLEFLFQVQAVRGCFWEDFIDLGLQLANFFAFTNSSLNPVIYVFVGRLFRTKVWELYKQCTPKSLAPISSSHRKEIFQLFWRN
Nature of the test: FLIPR Ca2+ assay (Fluo-4) on CHO K1 cells stably transfected with the human B1R gene (hB1R cells): % inhibition at 10 μM / IC50, agonist Lys-Des-Arg9-bradykinin. It is filed as cell-based. As to conditions: for inhibition at 10 µM: CHO-K1, human B1R. Here is the method:
The agonistic or antagonistic action of substances can be quantified on the bradykinin receptor 1 (B1R) of the human and rat species with ectopically expressing cell lines (CHO K1 cells) and with the aid of a Ca^2+-sensitive dyestuff (Fluo-4) in a fluorescent imaging plate reader (FLIPR). The figure in % activation is based on the Ca^2+ signal after addition of Lys-Des-Arg^9-bradykinin (0.5 nM) or Des-Arg^9-bradykinin (100 nM). Antagonists lead to a suppression of the Ca^2+ inflow after addition of the agonist. % inhibition compared with the maximum achievable inhibition is stated.
The agonistic or antagonistic action of substances can be determined on the bradykinin receptor 1 (B1R) of the human and rat species with the following assay. In accordance with this assay, the Ca^2+ inflow through the channel is quantified with the aid of a Ca^2+-sensitive dyestuff (type Fluo-4, Molecular Probes Europe BV, Leiden, Holland) in a fluorescent imaging plate reader (FLIPR, Molecular Devices, Sunnyvale, USA).
Chinese hamster ovary cells (CHO K1 cells) transfected stably with the human B1R gene (hB1R cells) or the B1R gene of the rat (rB1R cells) are used. For functional studies, these cells are plated out on black 96-well plates with a clear base (BD Biosciences, Heidelberg, Germany or Greiner, Frickenhausen, Germany) in a density of 20,000-35,000 cells/well. The cells are left overnight at 37° C. and 5% CO2 in culture medium (hB1R cells: Nutrient Mixture Ham's F12, Gibco Invitrogen GmbH, Karlsruhe, Germany or DMEM, Sigma-Aldrich, Taufkirchen, Germany; rB1R cells: D-MEM/F12, Gibco Invitrogen GmbH, Karlsruhe, Germany) with 10 vol. % FBS (foetal bovine serum, Gibco Invitrogen GmbH, Karlsruhe, Germany or PAN Biotech GmbH, Aidenbach, Germany). On the following day, the cells are loaded for 60 min at 37° C. with 2.13 μM Fluo-4 (Molecular Probes Europe BV, Leiden Holland) in HBSS buffer (Hank's buffered saline solution, Gibco Invitrogen GmbH, Karlsruhe, Germany) with 2.5 mM probenecid (Sigma-Aldrich, Taufkirchen, Germany) and 10 mM HEPES (Sigma-Aldrich, Taufkirchen, Germany). The plates are then washed 2× with HBSS buffer, and HBSS buffer which additionally contains 0.1% BSA (bovine serum albumin; Sigma-Aldrich, Taufkirchen, Germany), 5.6 mM glucose and 0.05% gelatine (Merck KGaA, Darmstadt, Germany) is added. After a further incubation of 20 minutes at room temperature, the plates are inserted into the FLIPR for the Ca^2+ measurement. Alternatively, the plates are washed with buffer A (15 mM HEPES, 80 mM NaCl, 5 mM KCl, 1.2 mM CaCl2, 0.7 mM MgSO4, 2 g/l glucose, 2.5 mM probenecid), buffer A is added and the plates are loaded with 2.5 μM Fluo-4 and 0.025% Pluronic F127 (Sigma-Aldrich, Taufkirchen, Germany). Thereafter, the cells are washed 2× with buffer A and incubated for 30 minutes at room temperature with buffer A, which additionally contains 0.05% BSA and 0.05% gelatine, and thereafter inserted into the FLIPR for the Ca^2+ measurement. The Ca^2+-dependent fluorescence is measured here before and after addition of substances (λex=488 nm, λem=540 nm). Quantification is by measurement of the highest fluorescence intensity (FC, fluorescence counts) over time.
The FLIPR protocol consists of 2 additions of substance. Test substances (10 μM) are first pipetted on to the cells and the Ca^2+ inflow is compared with the control (hB1R: Lys-Des-Arg^9-bradykinin>=50 nM; rB1R: Des-Arg^9-bradykinin 10 μM). This gives the result in % activation based on the Ca^2+ signal after addition of Lys-Des-Arg^9-bradykinin (>=50 nM) or Des-Arg^9-bradykinin (10 μM). After incubation for 10-20 minutes, Lys-Des-Arg^9-bradykinin (hB1R) or Des-Arg^9-bradykinin (rB1R) in the concentration of the EC80 is applied and the inflow of Ca^2+ is likewise determined. Antagonists lead to a suppression of the Ca^2+ inflow. % inhibition compared with the maximum achievable inhibition is calculated.
For determination of the IC50 value, the substances are added in various concentrations. […]

Test [2] addresses T2, rat B1R (bradykinin receptor 1) (Rattus norvegicus, UniProt P97583).
T2 construct: expressed in transfected cells; host or cells: CHO K1 cells
T2 sequence (P97583 1-337): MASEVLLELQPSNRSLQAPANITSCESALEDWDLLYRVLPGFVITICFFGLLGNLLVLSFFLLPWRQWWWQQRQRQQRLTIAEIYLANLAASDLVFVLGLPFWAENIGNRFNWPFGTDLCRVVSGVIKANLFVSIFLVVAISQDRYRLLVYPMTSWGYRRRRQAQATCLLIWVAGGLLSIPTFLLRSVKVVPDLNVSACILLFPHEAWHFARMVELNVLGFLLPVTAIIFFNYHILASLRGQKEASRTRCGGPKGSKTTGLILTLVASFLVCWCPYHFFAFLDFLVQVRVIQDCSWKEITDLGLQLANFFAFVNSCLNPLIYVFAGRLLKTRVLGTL
Briefly: FLIPR Ca2+ assay (Fluo-4) on CHO K1 cells stably transfected with the B1R gene of the rat (rB1R cells): % inhibition at 10 μM / IC50, agonist Des-Arg9-bradykinin. It is filed as cell-based. As to conditions: for inhibition at 10 µM: CHO-K1, rat B1R. The method, boiled down: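 Cells were Fluo-4-loaded, then test compound (10 μM, or a concentration series for IC50) was preincubated 10–20 min before agonist challenge at EC80: Lys-Des-Arg9-bradykinin for hB1R, Des-Arg9-bradykinin for rB1R. Peak Ca2+ fluorescence (ex 488/em 540 nm) gave % inhibition versus maximal achievable inhibition.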

A word on the inhibition: it is the relative decrease from the control value, in per cent. For the compound `O=C(N[C@@H]1CCc2ccc(C(=O)N3CCC4(CC3)CCN(c3ccncc3)C4)cc21)c1c(Cl)cccc1C(F)(F)F` [Example H-83, 2-Chloro-N-[(1R)-6-(3-pyridin-4-yl-3,8-diazaspiro[4.5]decane-8-carbonyl)-2,3-dihydro-1H-inden-1-yl]-6-(trifluoromethyl)-benzamide], the inhibition at 10 µM was determined as 100% in test [1] and 105% in test [2].

Take `CC1(C)CC(NC(=O)Nc2ccc(Cl)c(Cl)c2)c2cc(C(=O)N3CCC4(CC3)CCN(c3ccncc3)CC4)ccc21` (stereo not drawn) [Ind_CC-057]: the “% Inhibition (human B1R) at 10 μM” value in test [1] (human B1R) is on record as 35%. In addition, the “% Inhibition (rat B1R) at 10 μM” value in test [2] (rat B1R) is reported as 80%.

As to `O=C(N[C@@H]1CCc2ccc(C(=O)N3CCC4(CCC(OCCn5ccnc5)CC4)CC3)cc21)c1ccccc1Cl` [Example H-120, 2-Chloro-N-[6-[9-[2-(1H-imidazol-1-yl)-ethoxy]-3-azaspiro[5.5]undecane-3-carbonyl]-2,3-dihydro-1H-inden-1-yl]-benzamide], the inhibition at 10 µM in test [1] amounted to 65%; in test [2], 104%.

Consider `O=C(NC1CCc2ccc(C(=O)N3CCC4(CC3)CCN(c3ccncc3)C4)cc21)c1cccc(C(F)(F)F)c1Cl` (stereo not drawn) [IND_CC-233, 2-Chloro-N-[6-(2-pyridin-4-yl-2,8-diazaspiro[4.5]decane-8-carbonyl)-2,3-dihydro-1H-inden-1-yl]-3-(trifluoromethyl)-benzamide], for which the results for the inhibition at 10 µM in test [1] and in test [2] were 86% and 98%, respectively.

As for `O=C(NC1CCc2ccc(C(=O)N3CCC4(CCN(c5ccnc(C(F)(F)F)n5)CC4)C3)cc21)c1ccccc1Cl` (stereo not drawn) [Example H-51, 2-chloro-N-[6-[8-[2-(trifluoromethyl)-pyrimidin-4-yl]-3,8-diazaspiro[4.5]decane-3-carbonyl]-2,3-dihydro-1H-inden-1-yl]-benzamide], the inhibition at 10 µM in test [1] is 98%; in test [2], 96%.

As to `CN(C(=O)Nc1ccc(Cl)c(Cl)c1)C1CCc2ccc(C(=O)N3CCC4(CC3)CCN(c3ccncc3)CC4)cc21` (stereo not drawn) [Ind_CC-022, 3-(3,4-dichlorophenyl)-1-methyl-1-[6-(9-pyridin-4-yl-3,9-diazaspiro[5.5]undecane-3-carbonyl)-2,3-dihydro-1H-inden-1-yl]-urea], the results for the inhibition at 10 µM in test [1] and in test [2] were 91% and 75%, respectively.

For `CN(C(=O)c1ccccc1Cl)C1CCc2ccc(C(=O)N3CCC4(CC3)CCN(c3ccncc3)C4)cc21` (stereo not drawn) [Ind_CC-112, 2-chloro-N-methyl-N-[6-(2-pyridin-4-yl-2,8-diazaspiro[4.5]decane-8-carbonyl)-2,3-dihydro-1H-inden-1-yl]-benzamide], the inhibition at 10 µM in test [1] turned out to be 100%; in test [2], 104%.

On to `CC1(C)CC(NC(=O)c2ccc(F)cc2Cl)c2cc(C(=O)N3CCC4(CC3)CCN(c3ccncc3)CC4)ccc21` (stereo not drawn) [IND_CC-276, 2-Chloro-N-[3,3-dimethyl-6-(3-pyridin-4-yl-3,9-diazaspiro[5.5]undecane-9-carbonyl)-1,2-dihydro-inden-1-yl]-4-fluoro-benzamide], for which the values for the inhibition at 10 µM in test [1] and in test [2] were 100% and 107%, respectively.

Consider `O=C(NC1CCc2ccc(C(=O)N3CCC4(CC3)CCN(c3ccncc3)C4)cc21)c1cc(Cl)ccc1Cl` (stereo not drawn) [IND_CC-208, 2,5-Dichloro-N-[6-(2-pyridin-4-yl-2,8-diazaspiro[4.5]decane-8-carbonyl)-2,3-dihydro-1H-inden-1-yl]-benzamide], for which the inhibition at 10 µM in test [1] came to 99%; in test [2] it was 100%.

As for `O=C(NC1CCc2ccc(C(=O)N3CCC4(CCC(N5CCC5)CC4)CC3)cc21)c1ccccc1Cl` (stereo not drawn) [Example H-06, N-[6-[9-(azetidin-1-yl)-3-azaspiro[5.5]undecane-3-carbonyl)-2,3-dihydro-1H-indan-1-yl]-2-chloro-benzamide], the values for the inhibition at 10 µM in test [1] and in test [2] were 60% and 98%, respectively.

On to `O=C(NC1CCc2ccc(C(=O)N3CCC4(CCN(c5ccncc5)CC4)C3)cc21)c1cc(F)ccc1Cl` (stereo not drawn) [IND_CC-253, 2-Chloro-5-fluoro-N-[6-(8-pyridin-4-yl-2,8-diazaspiro[4.5]decane-2-carbonyl)-2,3-dihydro-1H-inden-1-yl]-benzamide], for which the inhibition at 10 µM in test [1] and in test [2] was 100% throughout.

In the case of `O=C(NC1CCc2ccc(C(=O)N3CCC4(CCN(c5ccncc5)CC4)C3)cc21)c1cccc(C(F)(F)F)c1Cl` (stereo not drawn) [IND_CC-255, 2-Chloro-N-[6-(8-pyridin-4-yl-2,8-diazaspiro[4.5]decane-2-carbonyl)-2,3-dihydro-1H-inden-1-yl]-3-(trifluoromethyl)-benzamide], the inhibition at 10 µM in test [1] and in test [2] was 100% in each case.

On to `CC1(C)Cc2ccc(C(=O)N3CCC4(CC3)CCN(c3ccncc3)CC4)cc2C1NC(=O)c1cc(F)ccc1Cl` (stereo not drawn) [IND_CC-223, 2-Chloro-N-[2,2-dimethyl-6-(9-pyridin-4-yl-3,9-diazaspiro[5.5]undecane-3-carbonyl)-1,3-dihydro-inden-1-yl]-5-fluoro-benzamide], for which the inhibition at 10 µM in test [1] is 97%; in test [2], 105%.

On to `CC1(C)Cc2ccc(C(=O)N3CCC4(CC3)CCN(c3ccncc3)CC4)cc2C1NC(=O)c1ccc(F)cc1Cl` (stereo not drawn) [IND_CC-275, 2-Chloro-N-[2,2-dimethyl-6-(9-pyridin-4-yl-3,9-diazaspiro[5.5]undecane-3-carbonyl)-1,3-dihydro-inden-1-yl]-4-fluoro-benzamide], for which the values for the inhibition at 10 µM in test [1] and in test [2] were 100% and 107%, respectively.

As to `O=C(c1ccc2c(c1)[C@H](N1Cc3cccc(Cl)c3C1=O)CCC2)N1CCC2(CCN(c3ccncc3)CC2)C1` [Example H-13, 7-chloro-2-[(1R)-7-(8-pyridin-4-yl-3,8-diazaspiro[4.5]decane-3-carbonyl)-1,2,3,4-tetrahydro-naphthalen-1-yl]-2,3-dihydro-isoindol-1-one], the inhibition at 10 µM in test [1] amounted to 100%; in test [2] it was 101%.
